Experimental data reported in US7880007B2, “Bicyclic substituted phenyl piperidine modulators of muscarinic receptors” (Vertex Pharmaceuticals Incorporated, priority 2004, dated 2011).

Key:
Assay type in all cases: cell-based
[1] = target: T1, M1 muscarinic receptor (Homo sapiens, UniProt P11229); experiment: Functional mobilization of intracellular calcium (FLIPR), M1-CHO cells; details: for Emax: 100% efficacy = maximum response obtained with the Carbachol control; for M1 Activity: M1-CHO cells, calcium mobilization (FLIPR)
T1 construct: expressed in transfected cells; host or cells: CHO (M1-CHO)
T1 sequence (P11229 1-460): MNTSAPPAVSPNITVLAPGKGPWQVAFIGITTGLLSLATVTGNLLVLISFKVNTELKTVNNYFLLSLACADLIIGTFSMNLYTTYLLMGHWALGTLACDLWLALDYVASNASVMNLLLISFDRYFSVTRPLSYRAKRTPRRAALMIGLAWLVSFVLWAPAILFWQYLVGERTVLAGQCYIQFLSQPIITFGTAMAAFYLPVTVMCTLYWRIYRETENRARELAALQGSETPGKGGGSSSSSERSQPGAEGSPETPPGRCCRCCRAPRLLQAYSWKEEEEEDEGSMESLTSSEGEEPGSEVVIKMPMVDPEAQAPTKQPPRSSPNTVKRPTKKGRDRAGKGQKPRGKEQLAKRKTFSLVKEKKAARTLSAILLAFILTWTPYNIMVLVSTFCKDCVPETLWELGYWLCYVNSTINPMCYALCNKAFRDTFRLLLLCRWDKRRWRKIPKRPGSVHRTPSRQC
Method in brief: (§1)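 CHO cells expressing human M1–M4 receptors loaded with Fluo-3 AM or Calcium 3 dye (1 mM probenecid, pH 7.4); 0.5% DMSO final. Agonist mode: compound added directly; antagonist mode: 15 min pre-incubation or co-application, then carbachol at EC80. Fluorescence read 60 s on FLIPR; efficacy relative to carbachol maximum.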

[2] = target: T2, M2 muscarinic receptor (Homo sapiens, UniProt P08172); experiment: Functional mobilization of intracellular calcium (FLIPR), M2-CHO cells; details: for Emax: 100% efficacy = maximum response obtained with the Carbachol control; for M2 Activity: M2-CHO cells, calcium mobilization (FLIPR)
T2 construct: expressed in transfected cells; host or cells: CHO (M2-CHO)
T2 sequence (P08172 1-466): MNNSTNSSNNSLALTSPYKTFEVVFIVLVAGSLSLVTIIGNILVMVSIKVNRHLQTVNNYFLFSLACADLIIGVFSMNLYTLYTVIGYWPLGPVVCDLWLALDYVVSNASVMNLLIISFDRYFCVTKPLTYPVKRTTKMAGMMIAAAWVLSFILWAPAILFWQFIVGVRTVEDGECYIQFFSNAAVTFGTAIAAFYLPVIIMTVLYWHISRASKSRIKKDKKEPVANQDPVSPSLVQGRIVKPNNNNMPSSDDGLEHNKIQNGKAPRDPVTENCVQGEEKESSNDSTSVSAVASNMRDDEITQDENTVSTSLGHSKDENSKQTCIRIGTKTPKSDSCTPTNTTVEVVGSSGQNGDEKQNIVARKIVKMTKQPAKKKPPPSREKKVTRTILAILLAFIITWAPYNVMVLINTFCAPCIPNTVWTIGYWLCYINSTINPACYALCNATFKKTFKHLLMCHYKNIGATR
Method in brief: as §1

[3] = target: T3, M3 muscarinic receptor (Homo sapiens, UniProt P20309); experiment: Functional mobilization of intracellular calcium (FLIPR), M3-CHO cells; details: for Emax: 100% efficacy = maximum response obtained with the Carbachol control; for M3 Activity: M3-CHO cells, calcium mobilization (FLIPR)
T3 construct: expressed in transfected cells; host or cells: CHO (M3-CHO)
Method in brief: as §1

[4] = target: T4, M4 muscarinic receptor (Homo sapiens, UniProt P08173); experiment: Functional mobilization of intracellular calcium (FLIPR), M4-CHO cells; details: for Emax: 100% efficacy = maximum response obtained with the Carbachol control; for M4 Activity: M4-CHO cells, calcium mobilization (FLIPR)
T4 construct: expressed in transfected cells; host or cells: CHO (M4-CHO)
T4 sequence (P08173 1-479): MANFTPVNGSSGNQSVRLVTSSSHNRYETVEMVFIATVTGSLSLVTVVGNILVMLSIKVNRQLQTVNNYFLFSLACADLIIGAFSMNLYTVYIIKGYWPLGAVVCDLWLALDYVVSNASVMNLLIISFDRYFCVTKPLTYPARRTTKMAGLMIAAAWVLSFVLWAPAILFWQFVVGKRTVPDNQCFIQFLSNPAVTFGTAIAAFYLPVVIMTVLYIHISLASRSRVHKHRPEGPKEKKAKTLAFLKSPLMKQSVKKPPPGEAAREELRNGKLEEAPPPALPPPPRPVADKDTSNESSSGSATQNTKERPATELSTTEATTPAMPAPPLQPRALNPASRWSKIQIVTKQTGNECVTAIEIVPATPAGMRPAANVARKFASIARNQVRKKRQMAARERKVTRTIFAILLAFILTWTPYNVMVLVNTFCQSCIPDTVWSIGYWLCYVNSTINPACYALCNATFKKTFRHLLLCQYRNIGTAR
Method in brief: as §1

T3 sequence (P20309 whole entry): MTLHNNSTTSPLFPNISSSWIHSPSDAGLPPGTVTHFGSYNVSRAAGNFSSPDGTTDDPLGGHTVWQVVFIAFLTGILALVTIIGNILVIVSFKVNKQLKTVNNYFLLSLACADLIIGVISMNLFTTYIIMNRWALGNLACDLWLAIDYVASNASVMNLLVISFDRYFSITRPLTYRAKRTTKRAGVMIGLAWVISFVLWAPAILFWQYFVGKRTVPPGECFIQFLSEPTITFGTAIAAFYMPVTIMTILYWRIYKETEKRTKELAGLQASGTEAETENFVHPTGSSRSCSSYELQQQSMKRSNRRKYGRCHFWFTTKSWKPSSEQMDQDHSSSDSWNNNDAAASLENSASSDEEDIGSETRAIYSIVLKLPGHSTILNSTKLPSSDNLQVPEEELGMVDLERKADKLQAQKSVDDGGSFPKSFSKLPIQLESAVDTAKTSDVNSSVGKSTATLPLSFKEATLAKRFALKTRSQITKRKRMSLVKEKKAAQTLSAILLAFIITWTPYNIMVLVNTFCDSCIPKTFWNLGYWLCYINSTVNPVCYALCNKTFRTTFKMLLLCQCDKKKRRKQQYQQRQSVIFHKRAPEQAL

Compound: COc1ccc(-c2cc(F)ccc2F)cc1C1CCN([C@H]2C[C@H]3CC[C@H]2C3)CC1 [Compound 206]
- Emax [1]: < 25%
- M1 Activity [1]: + (activity was measured to be greater than 5.0 μM)
- Emax [2]: < 25%
- M2 Activity [2]: + (activity was measured to be greater than 5.0 μM)
- Emax [3]: < 25%
- M3 Activity [3]: + (activity was measured to be greater than 5.0 μM)
- Emax [4]: 25 to 100%
- M4 Activity [4]: + (activity was measured to be greater than 5.0 μM)

Compound: COc1ccc(F)cc1C1CCN(C2CC3CCC(C3)C2)CC1 (stereo not shown) [Compound 207]
- Emax [1]: 25 to 100%
- M1 Activity [1]: +++ (activity was measured to be less than 1.0 μM)
- Emax [2]: < 25%
- M2 Activity [2]: + (activity was measured to be greater than 5.0 μM)
- Emax [3]: < 25%
- M3 Activity [3]: + (activity was measured to be greater than 5.0 μM)
- Emax [4]: 25 to 100%
- M4 Activity [4]: +++ (activity was measured to be less than 1.0 μM)

Compound: COc1ccc(Cl)cc1C1CCN(C2CC3CCC2C3)CC1 (stereo not shown) [Compound 209, 1-(bicyclo[2.2.1]heptan-2-yl)-4-(5-chloro-2-methoxyphenyl)-piperidine]
- Emax [1]: 25 to 100%
- M1 Activity [1]: ++ (activity was measured to be from 1.0 μM to 5.0 μM)
- Emax [2]: 25 to 100%
- M2 Activity [2]: ++ (activity was measured to be from 1.0 μM to 5.0 μM)
- Emax [3]: < 25%
- M3 Activity [3]: + (activity was measured to be greater than 5.0 μM)
- Emax [4]: 25 to 100%
- M4 Activity [4]: +++ (activity was measured to be less than 1.0 μM)

Compound: COc1ccccc1C1CCN(C2CC[C@@H](C)C2)CC1 (stereo partly shown) [Compound 210]
- Emax [1]: 25 to 100%
- M1 Activity [1]: + (activity was measured to be greater than 5.0 μM)
- Emax [2]: < 25%
- M2 Activity [2]: + (activity was measured to be greater than 5.0 μM)
- Emax [3]: < 25%
- M3 Activity [3]: + (activity was measured to be greater than 5.0 μM)
- Emax [4]: 25 to 100%
- M4 Activity [4]: +++ (activity was measured to be less than 1.0 μM)

Compound: CCOC(=O)N1CCC(N2CCC(c3ccccc3OC)CC2)CC1 [Compound 211]
- Emax [1]: 25 to 100%
- M1 Activity [1]: +++ (activity was measured to be less than 1.0 μM)
- Emax [2]: 25 to 100%
- M2 Activity [2]: +++ (activity was measured to be less than 1.0 μM)
- Emax [3]: 25 to 100%
- M3 Activity [3]: + (activity was measured to be greater than 5.0 μM)
- Emax [4]: > 100%
- M4 Activity [4]: +++ (activity was measured to be less than 1.0 μM)

Compound: Cc1ccc(F)cc1C1CCN([C@H]2C[C@H]3CC[C@H]2C3)CC1 [Compound 212]
- Emax [1]: 25 to 100%
- M1 Activity [1]: + (activity was measured to be greater than 5.0 μM)
- Emax [2]: < 25%
- M2 Activity [2]: + (activity was measured to be greater than 5.0 μM)
- Emax [3]: < 25%
- M3 Activity [3]: + (activity was measured to be greater than 5.0 μM)
- Emax [4]: 25 to 100%
- M4 Activity [4]: +++ (activity was measured to be less than 1.0 μM)

Compound: COc1ccc(Cl)cc1C1(F)CCN(C[C@H]2C[C@H]3C=C[C@H]2C3)CC1 [Compound 213]
- Emax [1]: 25 to 100%
- M1 Activity [1]: + (activity was measured to be greater than 5.0 μM)
- Emax [2]: 25 to 100%
- M2 Activity [2]: ++ (activity was measured to be from 1.0 μM to 5.0 μM)
- Emax [3]: < 25%
- M3 Activity [3]: + (activity was measured to be greater than 5.0 μM)
- Emax [4]: 25 to 100%
- M4 Activity [4]: +++ (activity was measured to be less than 1.0 μM)

Compound: COc1ccc(-c2ccc(S(=O)(=O)C(C)C)cc2)cc1C1CCN([C@H]2C[C@H]3CC[C@H]2C3)CC1 [Compound 214]
- Emax [1]: 25 to 100%
- M1 Activity [1]: + (activity was measured to be greater than 5.0 μM)
- Emax [2]: < 25%
- M2 Activity [2]: + (activity was measured to be greater than 5.0 μM)
- Emax [3]: < 25%
- M3 Activity [3]: + (activity was measured to be greater than 5.0 μM)
- Emax [4]: 25 to 100%
- M4 Activity [4]: ++ (activity was measured to be from 1.0 μM to 5.0 μM)

Compound: CCOC(=O)N1C2CCC1CC(N1CCC(c3cc(-c4ccc(S(=O)(=O)N5CCCC5)cc4)ccc3OC)CC1)C2 (stereo not shown) [Compound 215]
- Emax [1]: 25 to 100%
- M1 Activity [1]: + (activity was measured to be greater than 5.0 μM)
- Emax [2]: < 25%
- M2 Activity [2]: + (activity was measured to be greater than 5.0 μM)
- Emax [3]: < 25%
- M3 Activity [3]: + (activity was measured to be greater than 5.0 μM)
- Emax [4]: < 25%
- M4 Activity [4]: + (activity was measured to be greater than 5.0 μM)

Compound: COc1ccc(-c2ccccc2F)cc1C1CCN([C@H]2C[C@H]3CC[C@H]2C3)CC1 [Compound 216]
- Emax [1]: < 25%
- M1 Activity [1]: + (activity was measured to be greater than 5.0 μM)
- Emax [2]: < 25%
- M2 Activity [2]: + (activity was measured to be greater than 5.0 μM)
- Emax [3]: < 25%
- M3 Activity [3]: + (activity was measured to be greater than 5.0 μM)
- Emax [4]: 25 to 100%
- M4 Activity [4]: + (activity was measured to be greater than 5.0 μM)

Compound: CCOC(=O)N1CCC(CN2CCC(c3cccc4c3OCO4)CC2)CC1 [Compound 217]
- Emax [1]: 25 to 100%
- M1 Activity [1]: +++ (activity was measured to be less than 1.0 μM)
- Emax [2]: < 25%
- M2 Activity [2]: + (activity was measured to be greater than 5.0 μM)
- Emax [3]: < 25%
- M3 Activity [3]: ++ (activity was measured to be from 1.0 μM to 5.0 μM)
- Emax [4]: 25 to 100%
- M4 Activity [4]: +++ (activity was measured to be less than 1.0 μM)

Compound: CCOC(=O)N1C2CCC1CC(N1CCC(F)(c3cc(Cl)ccc3OC)CC1)C2 (stereo not shown) [Compound 219, 4-(5-chloro-2-methoxyphenyl)-4-fluoropiperidine tropane ethyl carbamate]
- Emax [1]: 25 to 100%
- M1 Activity [1]: +++ (activity was measured to be less than 1.0 μM)
- Emax [2]: < 25%
- M2 Activity [2]: + (activity was measured to be greater than 5.0 μM)
- Emax [3]: < 25%
- M3 Activity [3]: + (activity was measured to be greater than 5.0 μM)
- Emax [4]: 25 to 100%
- M4 Activity [4]: +++ (activity was measured to be less than 1.0 μM)

Compound: COc1ccccc1C1CCN(C2CCC3CCC2C3)CC1 (stereo not shown) [Compound 221]
- Emax [1]: 25 to 100%
- M1 Activity [1]: + (activity was measured to be greater than 5.0 μM)
- Emax [2]: < 25%
- M2 Activity [2]: + (activity was measured to be greater than 5.0 μM)
- Emax [3]: < 25%
- M3 Activity [3]: + (activity was measured to be greater than 5.0 μM)
- Emax [4]: 25 to 100%
- M4 Activity [4]: +++ (activity was measured to be less than 1.0 μM)

Compound: COc1ccc(C#CCC(C)C)cc1C1CCN([C@H]2C[C@H]3CC[C@H]2C3)CC1 [Compound 223]
- Emax [1]: < 25%
- M1 Activity [1]: + (activity was measured to be greater than 5.0 μM)
- Emax [2]: < 25%
- M2 Activity [2]: + (activity was measured to be greater than 5.0 μM)
- Emax [3]: < 25%
- M3 Activity [3]: + (activity was measured to be greater than 5.0 μM)
- Emax [4]: 25 to 100%
- M4 Activity [4]: + (activity was measured to be greater than 5.0 μM)
